Results as given in patent US10376557B2, “Peptide fragments for inducing synthesis of extracellular matrix proteins” (HELIX BIOMEDIX, INC., priority 2006, dated 2019).
Ends that are not written are not given here.

Tested on: Human dermal fibroblasts
Test: SIRCOL collagen assay: soluble collagen released by dermal fibroblasts incubated with peptides
Type: cell-based
Settings: for Released collagen (μg/mL) 24 h / Released collagen (μg/mL) 48 h: peptide 50 μg/mL (per Table 5); for Collagen / Collagen (μg): * = may not be significant, detection limit 2.5 μg; for Collagen produced (μg/mL) 24 hrs / Collagen produced (μg/mL) 48 hrs: [Peptide] 50 μg/mL
Procedure: Several sequences identified in Examples 1 and 2 were synthesized using standard peptide chemistry and assayed for the stimulation of collagen from dermal fibroblasts. The synthesized peptides were amidated at the C-terminus, which rendered the tetrapeptides less susceptible to protease degradation and increased their solubility compared to the free acid forms. Human dermal fibroblasts were incubated in 96-well plates at 37° C. and 5% CO2 for 24 and 48 hours in 150 μL complete cell culture media (Cascade Biologics, Portland, Oreg.; Cat. No. M-106-500), supplemented with Low Serum Growth Supplement (Cascade Biologics, Portland, Oreg.; Cat. No. […] Each well was seeded with 10,000 cells. Following the incubation, 100-μL medium samples were recovered from each well and assayed for collagen production
The assays were performed by Tebu-bio Laboratories (France) using the SIRCOL™ Collagen Assay Kit (Biocolor Assays, UK) following the manufacturer's protocol. The SIRCOL™ Collagen Assay is a quantitative dye-binding method designed for the analysis of soluble collagens released into culture medium by mammalian cells during in vitro culture. The collagen of the tested samples binds to the anionic SIRCOL™ dye. The collagen-dye complexes precipitate out of solution and are pelleted by centrifugation. The recovered collagen-dye pellet was dissolved in an alkaline solution prior to absorbance measurements. Duplicate measurements were taken at the 24 and 48 hour times from two separate samples. The four measurements for each sample were averaged. The absorbance of reagent blanks, collagen standards, and samples were measured at 560 nm. The reagent blank absorbance was subtracted from the absorbance from each sample at 24 and 48 hours.
Two separate data sets were used to generate two collagen standard calibration curves. The first calibration curve was generated for purposes of calculating the quantity of collagen in samples H6 (combination of SEQ ID NOs:1-4), […] (SEQ ID NOs:1-8, respectively) and H15 (combination of SEQ ID NOs:5-8). The second calibration curve was generated for calculating the quantity of collagen in samples H16 (SEQ ID NO:9), H21-23 (SEQ ID NOs:10-12, respectively), H25-26 (SEQ ID NOs:13-14, respectively), or H29-30 (SEQ ID NOs:15-16, respectively), H32 (SEQ ID NO:17), H33 (combination of SEQ ID NOs:9-12), H34 (combination of SEQ ID NOs:11-14), H35 (combination of SEQ ID NOs:13-16), H36 (combination of SEQ ID NOs:1, 6, 5, 8), H37 (SEQ ID NO: 17) and H38 (SEQ ID NO:8) from the absorbance measurements was created by plotting the Abs560nm of the known collagen standards versus the respective concentrations of the collagen standards (in micrograms) each time a series of assays were performed. With respect to each data set, the same calibration curve was used for samples taken at the 24 and 48 hour times (Tables 2A and 2B). Accordingly, different standard curves were prepared immediately prior to performing each series of assays.
A linear regression was performed from plotting the Abs560nm values versus concentrations of the respective collagen standards using MICROSOFT EXCEL™. […] As the results were identical, only the 24-hour time period was used for the second series calibration curves. The formula of the line obtained on assay date 1 and assay date 2 of the second series of samples was y=0.0178x and y=0.0162x, respectively. The peptide LL-37 (SEQ ID NO:18) was used as a positive control as it has been widely reported to have an impact upon wound healing in man (Heilborn et al., The Cathelicidin Anti-Microbial Peptide LL-37 Is Involved In The Re-Epithelialization Of Human Skin Wounds And Is Lacking In Chronic Ulcer Epithelium, J. Invest. Dermato. 120:379-89 (2003). The assay detection limit defined by the manufacturer is 2.5 μg. […]

[1] = 24 hours, peptide 50 μg/mL, 100 μL medium sample
[2] = 48 hours, peptide 50 μg/mL, 100 μL medium sample
[3] = check mark = yes, peptide 50 μg/mL
[4] = 24 hours, peptide 50 μg/mL, second series
[5] = 48 hours, peptide 50 μg/mL, second series

Row | Substance | Released collagen (μg/mL) 24 h [µg/mL] | Average (A560 nm) (24 hours, peptide 50 μg/mL) | Average minus blank (A560 nm) (24 hours, peptide 50 μg/mL) | Collagen [1] [µg] | Collagen produced (μg/mL) 24 hrs [µg/mL] | Released collagen (μg/mL) 48 h [µg/mL] | Average (A560 nm) (48 hours, peptide 50 μg/mL) | Average minus blank (A560 nm) (48 hours, peptide 50 μg/mL) | Collagen (μg) [2] | Collagen produced (μg/mL) 48 hrs [µg/mL] | Decrease in collagen release at 48 h v. 24 h [3] | Average (A560 nm) [4] | Average minus blank (A560 nm) [4] | Collagen (μg) [4] | Average (A560 nm) [5] | Average minus blank (A560 nm) [5] | Collagen (μg) [5] | further results
1 | PGPR (Synthetic Peptide H10) | 34 | 0.12 | 0.04 | 3.4 | 34 | 0 | 0.11 | 0.00 | 0.0* μg | 0 | ✓ |  |  |  |  |  |  | 
2 | GSPG (Synthetic Peptide H9) | 35 | 0.13 | 0.05 | 3.5 | 35 | 0 | 0.09 | 0.00 | 0.0* μg | 0 | ✓ |  |  |  |  |  |  | 
3 | PMGP (PMGP-NH2) [H25] | 13 |  |  |  | 13 | 7 |  |  |  | 7 | ✓ | 0.10 | 0.02 | 1.3* μg | 0.07 | 0.01 | 0.7* μg | 
4 | PGTP (PGTP-NH2) [H23] | 1 |  |  |  | 1 | 17 |  |  |  | 17 |  | 0.08 | 0.00 | 0.1* μg | 0.09 | 0.03 | 1.7* μg | Increase in collagen release at 48 h v. 24 h [3]: ✓
5 | PKGP (PKGP-NH2) [H21] | 25 |  |  |  | 25 | 29 |  |  |  | 29 |  | 0.12 | 0.04 |  | 0.11 | 0.05 |  | Collagen [4]: 2.5 µg; Collagen [5]: 2.9 µg; Significant release of collagen at 24 h and 48 h (check mark = yes, 25 μg/mL considered significant, peptide 50 μg/mL): ✓
6 | GFPG (Synthetic Peptide H8) | 15 | 0.10 | 0.02 |  | 15 | 9 | 0.13 | 0.01 | 0.9* μg | 9 |  |  |  |  |  |  |  | Collagen (μg) [1]: 1.5* μg
